Laboratory results: US12258327B2, “5-membered heteroaryl-containing aminopyridine compounds as EGFR inhibitors” (YUHAN CORPORATION, priority 2021, dated 2025)
Read-outs that look alike come from different tables or passages of the source.

Key:
EGFR del19/T790M/C797S = EGFR del19/T790M/C797S (Homo sapiens, UniProt P00533, C797S/DEL746-750/T790M); test: Biochemical EGFR kinase assay (Lance Ultra TR-FRET), triple mutant del19/T790M/C797S
Method in brief: (§1)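 Step 1: compound in kinase buffer, 0.003–10 μM. Step 2: kinase reaction 1 h at room temperature. Step 4: TR-FRET read at 615/665 nm; IC50 calculated.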

EGFR L858R/C797S = EGFR L858R/C797S (Homo sapiens, UniProt P00533, C797S/L858R); test: Biochemical EGFR kinase assay (Lance Ultra TR-FRET), double mutant L858R/C797S
Method in brief: as §1

EGFR wildtype (WT) = EGFR wildtype (WT) (Homo sapiens, UniProt P00533); test: Biochemical EGFR kinase assay (Lance Ultra TR-FRET), wildtype
Chain of EGFR wildtype (WT) (P00533 25-1210): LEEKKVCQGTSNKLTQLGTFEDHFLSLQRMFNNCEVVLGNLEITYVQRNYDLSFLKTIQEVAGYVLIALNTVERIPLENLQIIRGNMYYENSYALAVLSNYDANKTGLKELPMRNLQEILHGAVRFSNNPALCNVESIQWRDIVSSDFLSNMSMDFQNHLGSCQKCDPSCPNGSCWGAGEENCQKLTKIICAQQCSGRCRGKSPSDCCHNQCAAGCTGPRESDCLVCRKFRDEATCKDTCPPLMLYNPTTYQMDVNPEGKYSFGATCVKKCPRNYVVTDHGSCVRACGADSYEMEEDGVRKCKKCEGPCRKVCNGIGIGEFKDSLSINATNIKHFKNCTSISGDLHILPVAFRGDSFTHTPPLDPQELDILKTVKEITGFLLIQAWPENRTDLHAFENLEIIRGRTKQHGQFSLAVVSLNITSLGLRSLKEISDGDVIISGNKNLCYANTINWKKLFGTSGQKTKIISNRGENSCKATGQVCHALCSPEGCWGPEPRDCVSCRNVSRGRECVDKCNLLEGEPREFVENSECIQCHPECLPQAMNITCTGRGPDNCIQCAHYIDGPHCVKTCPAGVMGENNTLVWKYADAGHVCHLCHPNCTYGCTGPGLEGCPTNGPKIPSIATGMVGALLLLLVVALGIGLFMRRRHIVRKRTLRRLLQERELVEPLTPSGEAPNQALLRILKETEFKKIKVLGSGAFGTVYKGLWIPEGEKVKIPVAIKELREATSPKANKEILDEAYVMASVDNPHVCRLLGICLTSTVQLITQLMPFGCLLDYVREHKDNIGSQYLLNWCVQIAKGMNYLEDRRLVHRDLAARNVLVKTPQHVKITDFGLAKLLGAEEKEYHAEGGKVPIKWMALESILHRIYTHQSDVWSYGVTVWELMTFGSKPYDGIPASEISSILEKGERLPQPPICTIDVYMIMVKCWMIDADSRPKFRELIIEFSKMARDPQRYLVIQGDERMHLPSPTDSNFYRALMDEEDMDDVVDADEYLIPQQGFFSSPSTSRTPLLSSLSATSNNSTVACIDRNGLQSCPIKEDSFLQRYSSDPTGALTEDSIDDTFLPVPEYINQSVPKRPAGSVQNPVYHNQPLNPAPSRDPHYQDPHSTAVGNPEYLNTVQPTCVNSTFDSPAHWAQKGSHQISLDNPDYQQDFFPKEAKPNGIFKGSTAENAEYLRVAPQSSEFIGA
Method in brief: as §1

EGFR del19/C797S = EGFR del19/C797S (Homo sapiens, UniProt P00533, C797S/DEL746-750); test: Biochemical EGFR kinase assay (Lance Ultra TR-FRET), double mutant del19/C797S
Chain of EGFR del19/C797S (P00533 with tags, fused parts or gaps DEL746-750/C797S): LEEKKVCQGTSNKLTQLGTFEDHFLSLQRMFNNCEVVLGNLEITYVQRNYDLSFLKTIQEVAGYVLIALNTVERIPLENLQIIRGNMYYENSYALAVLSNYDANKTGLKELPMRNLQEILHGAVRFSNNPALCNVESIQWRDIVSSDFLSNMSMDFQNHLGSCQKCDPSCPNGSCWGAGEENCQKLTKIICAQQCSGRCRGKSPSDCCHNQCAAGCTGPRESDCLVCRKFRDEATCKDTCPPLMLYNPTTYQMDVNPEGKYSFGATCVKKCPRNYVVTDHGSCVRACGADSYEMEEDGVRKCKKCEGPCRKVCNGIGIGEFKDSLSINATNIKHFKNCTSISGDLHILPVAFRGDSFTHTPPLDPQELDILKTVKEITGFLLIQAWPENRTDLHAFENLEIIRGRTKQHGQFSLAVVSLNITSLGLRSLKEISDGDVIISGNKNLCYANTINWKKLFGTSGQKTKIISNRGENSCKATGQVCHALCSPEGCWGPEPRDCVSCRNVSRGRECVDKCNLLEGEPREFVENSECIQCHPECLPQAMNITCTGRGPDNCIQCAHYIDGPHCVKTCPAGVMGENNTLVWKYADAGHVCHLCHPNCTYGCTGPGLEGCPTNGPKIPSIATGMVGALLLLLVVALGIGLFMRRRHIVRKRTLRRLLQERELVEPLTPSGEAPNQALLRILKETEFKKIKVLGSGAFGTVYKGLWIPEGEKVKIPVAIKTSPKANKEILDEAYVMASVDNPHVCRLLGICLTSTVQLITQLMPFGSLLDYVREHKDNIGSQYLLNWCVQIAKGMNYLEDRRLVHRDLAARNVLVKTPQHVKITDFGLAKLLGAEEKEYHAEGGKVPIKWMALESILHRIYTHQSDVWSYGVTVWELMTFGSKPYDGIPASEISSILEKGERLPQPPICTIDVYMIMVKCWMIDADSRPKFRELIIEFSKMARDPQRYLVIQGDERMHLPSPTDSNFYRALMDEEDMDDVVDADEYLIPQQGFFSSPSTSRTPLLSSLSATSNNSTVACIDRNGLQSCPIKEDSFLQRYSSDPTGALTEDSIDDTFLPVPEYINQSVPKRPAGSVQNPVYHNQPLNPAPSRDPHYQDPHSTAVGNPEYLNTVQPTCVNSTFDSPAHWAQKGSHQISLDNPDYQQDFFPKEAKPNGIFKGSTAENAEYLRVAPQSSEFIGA
Method in brief: as §1

EGFR L858R/T790M/C797S = EGFR L858R/T790M/C797S (Homo sapiens, UniProt P00533, C797S/L858R/T790M); test: Biochemical EGFR kinase assay (Lance Ultra TR-FRET), triple mutant L858R/T790M/C797S
Chain of EGFR L858R/T790M/C797S (P00533 25-1210 T790M/C797S/L858R): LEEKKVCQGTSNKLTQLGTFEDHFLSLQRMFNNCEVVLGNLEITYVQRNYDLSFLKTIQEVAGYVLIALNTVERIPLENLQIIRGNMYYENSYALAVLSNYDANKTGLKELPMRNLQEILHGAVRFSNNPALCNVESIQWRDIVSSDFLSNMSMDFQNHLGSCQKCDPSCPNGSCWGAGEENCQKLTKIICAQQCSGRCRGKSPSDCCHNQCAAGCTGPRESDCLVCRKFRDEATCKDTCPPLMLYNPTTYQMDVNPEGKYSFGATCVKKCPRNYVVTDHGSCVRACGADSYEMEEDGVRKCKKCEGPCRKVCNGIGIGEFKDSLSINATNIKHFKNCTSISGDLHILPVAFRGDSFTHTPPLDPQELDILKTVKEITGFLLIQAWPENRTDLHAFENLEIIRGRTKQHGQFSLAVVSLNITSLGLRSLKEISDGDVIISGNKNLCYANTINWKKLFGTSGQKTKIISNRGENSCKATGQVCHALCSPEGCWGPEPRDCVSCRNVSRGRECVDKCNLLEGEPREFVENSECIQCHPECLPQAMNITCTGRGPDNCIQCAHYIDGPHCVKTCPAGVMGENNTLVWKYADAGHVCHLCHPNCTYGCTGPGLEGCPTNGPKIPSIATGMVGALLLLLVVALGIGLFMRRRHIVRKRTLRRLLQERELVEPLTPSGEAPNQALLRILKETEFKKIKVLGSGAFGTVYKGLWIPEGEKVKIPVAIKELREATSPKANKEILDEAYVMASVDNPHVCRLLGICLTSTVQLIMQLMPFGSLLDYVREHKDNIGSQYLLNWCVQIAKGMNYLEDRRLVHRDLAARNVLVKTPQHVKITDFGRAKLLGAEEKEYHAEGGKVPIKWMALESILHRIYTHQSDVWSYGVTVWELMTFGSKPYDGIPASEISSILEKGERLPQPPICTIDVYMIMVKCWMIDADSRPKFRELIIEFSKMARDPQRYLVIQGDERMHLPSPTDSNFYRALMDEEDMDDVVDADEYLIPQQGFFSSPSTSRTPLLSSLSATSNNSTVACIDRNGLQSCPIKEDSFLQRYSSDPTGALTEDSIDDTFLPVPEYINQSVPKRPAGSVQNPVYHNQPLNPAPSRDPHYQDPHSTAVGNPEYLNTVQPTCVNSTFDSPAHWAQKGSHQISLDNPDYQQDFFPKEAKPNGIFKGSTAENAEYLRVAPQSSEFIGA
Method in brief: as §1

[1] = IC50 del19/T790M/C797S (nM) 100 μM ATP, 100 μM ATP
[2] = Km ATP, read-out: IC50 del19/T790M/C797S (nM) Km ATP
[3] = IC50 L858R/C797S (nM) 100 μM ATP, 100 μM ATP
[4] = Km ATP, read-out: IC50 L858R/C797S (nM) Km ATP
[5] = IC50 WT (nM) 100 μM ATP, 100 μM ATP
[6] = Km ATP, read-out: IC50 WT (nM) Km ATP
[7] = IC50 del19/C797S (nM) 100 μM ATP, 100 μM ATP
[8] = Km ATP, read-out: IC50 del19/C797S (nM) Km ATP
[9] = IC50 L858R/T790M/C797S (nM) 100 μM ATP, 100 μM ATP
[10] = Km ATP, read-out: IC50 L858R/T790M/C797S (nM) Km ATP

Chain of EGFR del19/T790M/C797S (P00533 with tags, fused parts or gaps DEL746-750/T790M/C797S): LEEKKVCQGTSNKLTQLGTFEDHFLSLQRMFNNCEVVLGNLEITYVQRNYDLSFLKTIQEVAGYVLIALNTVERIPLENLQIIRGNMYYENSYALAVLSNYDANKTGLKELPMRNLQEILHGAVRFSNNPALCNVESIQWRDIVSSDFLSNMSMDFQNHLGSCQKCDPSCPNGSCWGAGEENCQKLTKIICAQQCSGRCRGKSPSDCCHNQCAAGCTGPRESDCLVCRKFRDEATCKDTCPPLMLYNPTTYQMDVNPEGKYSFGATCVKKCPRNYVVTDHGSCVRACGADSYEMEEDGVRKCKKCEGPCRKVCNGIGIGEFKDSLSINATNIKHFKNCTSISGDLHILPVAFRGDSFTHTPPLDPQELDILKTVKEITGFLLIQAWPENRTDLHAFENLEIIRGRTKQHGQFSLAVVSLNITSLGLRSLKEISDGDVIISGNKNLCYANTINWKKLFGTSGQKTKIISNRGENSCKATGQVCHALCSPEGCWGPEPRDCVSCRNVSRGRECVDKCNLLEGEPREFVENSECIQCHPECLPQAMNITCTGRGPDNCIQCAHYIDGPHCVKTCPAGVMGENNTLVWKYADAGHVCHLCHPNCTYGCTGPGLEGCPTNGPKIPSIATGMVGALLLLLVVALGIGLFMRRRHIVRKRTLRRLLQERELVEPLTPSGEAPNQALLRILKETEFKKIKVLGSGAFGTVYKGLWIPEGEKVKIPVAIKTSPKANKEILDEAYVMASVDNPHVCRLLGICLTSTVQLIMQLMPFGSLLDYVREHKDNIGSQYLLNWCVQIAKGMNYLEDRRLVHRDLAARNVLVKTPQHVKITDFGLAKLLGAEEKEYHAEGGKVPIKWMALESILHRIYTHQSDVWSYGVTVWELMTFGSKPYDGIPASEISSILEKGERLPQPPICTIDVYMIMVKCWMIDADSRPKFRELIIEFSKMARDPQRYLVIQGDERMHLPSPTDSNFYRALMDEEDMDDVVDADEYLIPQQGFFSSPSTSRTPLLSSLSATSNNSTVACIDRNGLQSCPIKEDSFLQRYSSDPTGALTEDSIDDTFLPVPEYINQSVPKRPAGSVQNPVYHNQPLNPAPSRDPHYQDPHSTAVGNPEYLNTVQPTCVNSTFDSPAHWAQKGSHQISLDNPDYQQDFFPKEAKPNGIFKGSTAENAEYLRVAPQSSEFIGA

Structure (SMILES)	IC50 (EGFR del19/T790M/C797S; Km ATP, read-out: IC50 del19/T790M/C797S, Km ATP)	IC50 (EGFR L858R/C797S; Km ATP, read-out: IC50 L858R/C797S, Km ATP)	IC50 (EGFR wildtype (WT); Km ATP, read-out: IC50 WT, Km ATP)	IC50 (EGFR del19/C797S; Km ATP, read-out: IC50 del19/C797S, Km ATP)	IC50 (EGFR L858R/T790M/C797S; Km ATP, read-out: IC50 L858R/T790M/C797S, Km ATP)	IC50 (EGFR del19/T790M/C797S; [1])	IC50 (EGFR del19/T790M/C797S; [2])	IC50 (EGFR L858R/C797S; [3])	IC50 (EGFR L858R/C797S; [4])	IC50 (EGFR wildtype (WT); [5])	IC50 (EGFR wildtype (WT); [6])	IC50 (EGFR del19/C797S; [7])	IC50 (EGFR del19/C797S; [8])	IC50 (EGFR L858R/T790M/C797S; [9])	IC50 (EGFR L858R/T790M/C797S; [10])
FC(F)Cn1cc(-c2nccc(Nc3cc(N[C@H]4CC[C@@H](F)CC4)c(-c4ccn(CC(F)(F)F)n4)cn3)n2)cn1 [Example 339, N^2-(2-(1-(2,2-Difluoroethyl)-1H-pyrazol-4-yl)pyrimidin-4-yl)-N^4-((1s,4s)-4-fluorocyclohexyl)-5-(1-(2,2,2-trifluoroethyl)-1H-pyrazol-3-yl)pyridine-2,4-diamine]	2.9 nM	113 nM	424 nM	1070 nM	0.4 nM	–	–	–	–	–	–	–	–	–	–
Cc1cc(-c2cnc(Nc3ccnc(-c4cnn(S(=O)(=O)C5CC5)c4)n3)cc2N[C@H]2CC[C@@H](C(C)(C)O)CC2)nn1C [Example 281, 2-((1s,4s)-4-((2-((2-(1-(Cyclopropylsulfonyl)-1H-pyrazol-4-yl)pyrimidin-4-yl)amino)-5-(1,5-dimethyl-1H-pyrazol-3-yl)pyridin-4-yl)amino)cyclohexyl)propan-2-ol]	–	–	–	–	–	2.8 nM	1.8 nM	40.4 nM	2.8 nM	806 nM	2.9 nM	1.1 nM	0.9 nM	2.3 nM	0.6 nM
C[C@]1(F)CC[C@@H](Nc2cc(Nc3ccnc(-c4cnn(S(=O)(=O)C5CC5)c4)n3)ncc2-c2ccn(C(F)F)n2)CC1 [Example 220, N^2-(2-(1-(Cyclopropylsulfonyl)-1H-pyrazol-4-yl)pyrimidin-4-yl)-5-(1-(difluoromethyl)-1H-pyrazol-3-yl)-N^4-((1s,4s)-4-fluoro-4-methylcyclohexyl)pyridine-2,4-diamine]	–	–	–	–	–	–	16.6 nM	–	463 nM	–	720 nM	–	539 nM	–	11.4 nM
O=S(=O)(C1CC1)n1cc(-c2nccc(Nc3cc(NC4CC5CC(O)C4C5)c(-c4ccn(C(F)F)n4)cn3)n2)cn1 (stereo not drawn) [Example 39, 6-((2-((2-(1-(Cyclopropylsulfonyl)-1H-pyrazol-4-yl)pyrimidin-4-yl)amino)-5-(1-(difluoromethyl)-1H-pyrazol-3-yl)pyridin-4-yl)amino)bicycle[2.2.1]heptan-2-ol]	–	–	–	–	–	3.6 nM	1.6 nM	262 nM	27.8 nM	> 10000 nM	143 nM	17.6 nM	7.2 nM	7.9 nM	1.2 nM

Second part, the compound after the results:

IC50 (EGFR del19/T790M/C797S; Km ATP, read-out: IC50 del19/T790M/C797S, Km ATP)	IC50 (EGFR L858R/C797S; Km ATP, read-out: IC50 L858R/C797S, Km ATP)	IC50 (EGFR wildtype (WT); Km ATP, read-out: IC50 WT, Km ATP)	IC50 (EGFR del19/C797S; Km ATP, read-out: IC50 del19/C797S, Km ATP)	IC50 (EGFR L858R/T790M/C797S; Km ATP, read-out: IC50 L858R/T790M/C797S, Km ATP)	IC50 (EGFR del19/T790M/C797S; [1])	IC50 (EGFR del19/T790M/C797S; [2])	IC50 (EGFR L858R/C797S; [3])	IC50 (EGFR L858R/C797S; [4])	IC50 (EGFR wildtype (WT); [5])	IC50 (EGFR wildtype (WT); [6])	IC50 (EGFR del19/C797S; [7])	IC50 (EGFR del19/C797S; [8])	IC50 (EGFR L858R/T790M/C797S; [9])	IC50 (EGFR L858R/T790M/C797S; [10])	Structure (SMILES)
–	–	–	–	–	0.3 nM	0.3 nM	0.2 nM	0.2 nM	128 nM	0.6 nM	0.2 nM	0.2 nM	0.1 nM	0.1 nM	O=S(=O)(C1CC1)n1cc(-c2nccc(Nc3cc(N[C@H]4CC[C@@H](CN5CCC5)CC4)c(-c4ccn(C(F)F)n4)cn3)n2)cn1 [Example 208, N^4-((1s,4s)-4-(Azetidin-1-ylmethyl)cyclohexyl)-N^2-(2-(1-(cyclopropylsulfonyl)-1H-pyrazol-4-yl)pyrimidin-4-yl)-5-(1-(difluoromethyl)-1H-pyrazol-3-yl)pyridine-2,4-diamine]
–	–	–	–	–	0.4 nM	0.6 nM	3.4 nM	0.3 nM	669 nM	1.2 nM	1 nM	0.6 nM	0.3 nM	0.1 nM	CN(C)CCCn1ccc(-c2cnc(Nc3ccnc(-c4cnn(S(=O)(=O)C5CC5)c4)n3)cc2N[C@H]2CC[C@@H](C(C)(C)O)CC2)n1 [Example 278, 2-((1s,4s)-4-((2-((2-(1-(Cyclopropylsulfonyl)-1H-pyrazol-4-yl)pyrimidin-4-yl)amino)-5-(1-(3-(dimethylamino)propyl)-1H-pyrazol-3-yl)pyridin-4-yl)amino)cyclohexyl)propan-2-ol]
–	–	–	–	–	1.2 nM	0.5 nM	269 nM	35.9 nM	> 10000 nM	1780 nM	65.7 nM	24.3 nM	0.9 nM	0.2 nM	C[C@]1(O)CC[C@@H](Nc2cc(Nc3ccnc(-c4cnn(CC(F)(F)F)c4)n3)ncc2-c2ccn(C(F)F)n2)CC1 [Example 137, (1s,4s)-4-((5-(1-(Difluoromethyl)-1H-pyrazol-3-yl)-2-((2-(1-(2,2,2-trifluoroethyl)-1H-pyrazol-4-yl)pyrimidin-4-yl)amino)pyridin-4-yl)amino)-1-methylcyclohexan-1-ol]
